SMILES strings stand for the structures. Entries after “also recorded” stand apart in the source; their conditions may differ.

The subject of data set [1] is synapsin I expressed in HeLa cells. The data set is described as follows: Synapsin fucosylation and expression in synapsin I-transfected HeLa cells (immunoblotting). The format is cell-based. Conditions: deoxy sugar for 24 h. The method, then: (§1) FIG. 19. Inhibition of synapsin fucosylation using 2-dGal decreases the expression and half-life of synapsin I. (A) Effects of 2-dGal and 6-dGal on synapsin fucosylation (left panel) and synapsin expression (right panel) levels. Synapsin I-transfected HeLa cells were treated with the indicated amounts of the deoxy sugar for 24 h. Fucosylation and synapsin expression levels were measured by immunoblotting with antibody A46-B/B10 and an anti-synapsin antibody, respectively. […] Synapsin I-transfected HeLa cells were treated with 2-dGal or a vehicle control (PBS), pulse labeled with ^35S-L-cysteine and ^35S-L-methionine as described in Materials and Methods, and chased for the indicated times. ^35S-labeled synapsin levels were measured by autoradiography. (C) Inhibition of the calcium-activated protease calpain using a calpain inhibitor peptide or calpeptin protects synapsin from degradation. […] Synapsin I-transfected HeLa cells were treated with the indicated inhibitors or vehicle control (DMSO, PBS or MeOH) in the presence or absence of 2-dGal for 15 h. Following lysis, the cell extracts were analyzed for synapsin expression levels by immunoblotting.
The effects of 2-dGal on synapsin I expressed in HeLa cells were next investigated. Cell lysates containing equivalent amounts of transfected protein were resolved by SDS-PAGE, and the fucosylation and protein levels of synapsin were measured by immunoblotting, using methods described above.
A general note: In western blotting, separated proteins are transferred to a membrane and probed.

The test system of a further data set is E18 cortical neurons. Briefly: Expression of synaptic proteins in cultured neurons (Western blotting). Format: cell-based. Conditions: 15 mM for 3 days, neurons 7 DIV. As to the method:
(§2) FIG. 20. […] (A) E18 cortical neurons cultured for 7 DIV were treated with 15 mM of 2-dGal or 6-dGal for 3 days. Protein lysates were analyzed by Western blotting using antibodies selective for the indicated proteins. A significant reduction in the expression of synapsin Ib was observed, while other synapse-associated proteins were unaffected by the 2-dGal treatment. (B) Neurite retraction caused by 2-dGal is reduced in synapsin-deficient mice. Neurons from synapsin I-deficient or wild-type mice were cultured for 2 days, treated with 2-dGal for 3 days, and analyzed for mean neurite length.
To examine the effects of 2-dGal on synapsin fucosylation in neurons, neurons were cultured for 7 DIV to allow for adequate expression of synapsin and subsequently treated with 2-dGal or 6-dGal for comparison. Cells were lysed and immunoblotted as described above. […] The expression of other synaptic proteins, including NSF, the synaptic vesicle protein synaptotagmin, the presynaptic plasma membrane protein syntaxin, and the postsynaptic proteins PSD-95, the AMPA receptor GluR1 subunit and spinophilin, was unchanged by the 2-dGal treatment.

Data set [2] concerns Fucα(1-2)Gal epitope on glycoproteins. The data set is described as follows: Western blot of neuronal lysates with anti-Fucα(1-2)Gal antibody A46-B/B10. Format: cell-based, rat. Conditions: 30 mM, 4 days. As to the method: In addition to cells plated on coverslips, hippocampal neurons were grown in 30 mm dishes and treated with or without 30 mM 2-dGal (25 μL in PBS with 475 μL supplemented Neurobasal medium). After 4 days, cells were harvested with 2.5% trypsin, lysed with 1% boiling SDS with protease inhibitors, and cell lysates probed by Western blotting using the anti-Fucα(1-2)Gal antibody A46-B/B10 (Karsten, U., et al., G. Br. J. Cancer, 58:176-181 (1988)). Protein concentrations of the neuronal lysates were determined using the BCA Protein Assay (Pierce). Equal amounts of total protein were resolved by 10% SDS-PAGE, and proteins were transferred to PVDF membrane (Millipore) in 20 mM Tris-Cl pH 8.6/120 mM glycine/20% methanol. Western blots were blocked for 1 h with 3% periodated BSA (Glass, W. F., et al., Anal. Biochem., 115:219-224 (1981)) and rinsed with TBST (50 mM Tris-Cl pH 7.4/150 mM NaCl/0.1% Tween-20). Blots were incubated with anti-Fucα(1-2)Gal antibody A46-B/B10 (0.5 μg/mL; gift from Dr. U. Karsten, Max-Delbruck Centre for Molecular Medicine, Berlin-Buch, Germany) in TBST overnight at 4° C. with constant rocking, then rinsed and washed twice for 10 min with TBST. Immunoreactivity was visualized by incubation with a horseradish peroxidase conjugated goat anti-mouse antibody (1:2500; Pierce) in TBST for 1 h followed by a rinse and four washes of 20 min with TBST. […]

The subject of data set [3] is neurons from synapsin I-deficient or wild-type mice. The data set is described as follows: 2-dGal-mediated neurite retraction in neurons from synapsin I-deficient or wild-type mice. Conditions: cultured 2 days, 2-dGal for 3 days; n=50; p<0.003. The format is cell-based. The method, then:
as §2
Although synapsin I represents the major fucosylated protein in mature neuronal cultures, other proteins are also covalently modified by Fucα(1-2)Gal during early developmental stages (See FIG. 9A). The relative contribution of synapsin to the striking effects of 2-dGal on neuronal morphology were therefore investigated. Neurons were cultured from synapsin I-deficient (Chin, L. S., et al., Proc. Natl. Acad. Sci. USA 92:9230-9234 (1995); Drs. H. T Kao and P. Greengard, The Rockefeller University, New York, N.Y.) or wild-type mice for 2 days, treated with 2-dGal for 3 days, immunostained for tubulin, and examined by confocal fluorescence microscopy. […]

The test system of data set [4] is synapsin I-transfected HeLa cells. The data set is described as follows: Synapsin degradation with inhibitors of protein degradation with or without 2-dGal. The format is cell-based. Conditions: 2-dGal alone, 15 h. As to the method:
as §1
To investigate the molecular mechanisms responsible for synapsin degradation, cells expressing synapsin were treated with various inhibitors of protein degradation in the presence or absence of 2-dGal. Specifically, the lysosomal inhibitors bafilomycin A1 and ammonium chloride, the proteasome inhibitor MG132, and two inhibitors of the calcium-dependent protease calpain, were used.

In a further data set the test system is hippocampal slices. Conditions: cited from earlier work.
A further data set deals with hippocampal neurons. The data set is described as follows: Effects of deoxy-galactose sugars on neuronal morphology (anti-tau immunostaining). The format is cell-based, rat. The method, then: Hippocampal neurons were plated on poly-DL-ornithine-coated glass coverslips as described above. After one day in culture, the medium was replaced with fresh medium, and the small molecules (2-dGal, 3-Deoxy-D-Galactose (3-dGal), or D-Galactose (Gal)) were added. A dose-response experiment was initially performed to determine the minimum concentration of 2-dGal needed to elicit an effect. Neurons were treated with varying concentrations of 2-dGal (1, 5, 10, 15, or 30 mM in 25 μL PBS with 475 μL of supplemented Neurobasal medium) for 2 days before immunostaining with anti-tau antibodies as described above.
Cells were treated as above under 4 different conditions: (1) no treatment for 2 days, (2) incubation with 15 mM 2-dGal for 2 days, (3) incubation with 15 mM 2-dGal for 2 days followed by incubation with 75 mM Gal for 2 days, or (4) incubation with 15 mM 3-dGal for 2 days. After adding the small molecules, cultures were incubated at 37° C., 5% CO2, then washed once with PBS, and immunostained with anti-tau antibody as described above.

The conditions of data set [5]: animals; cited from earlier work.

Consider `O=CC[C@@H](O)[C@@H](O)[C@H](O)CO` [Compound 2-dGal, 2-Deoxy-D-Galactose], for which, in data set [1], the “fucosylation level of synapsin” value was “dramatic effect on the fucosylation level of synapsin” and the “level of synapsin protein” value is reported as “significant decrease in the level of synapsin protein”. Also, in the data set with E18 cortical neurons, the “expression of other synaptic proteins (NSF, synaptotagmin, syntaxin, PSD-95, GluR1, spinophilin)” value was “unchanged” and the “expression of synapsin I” value was “dramatically reduced the expression of synapsin I; also recorded: reduces synapsin I expression levels”. Moreover, in data set [2], the “level of Fucα(1-2)Gal epitope on glycoproteins” value is “disrupted synthesis of the Fucα(1-2)Gal epitope on glycoproteins; also recorded: significantly reduced levels of the Fucα(1-2)Gal epitope; also recorded: diminishes expression of the Fucα(1-2)Gal epitope”. Further, in data set [3], the “increase of mean neurite length, synapsin knockout compared to wild-type neurons” value came to 17.4±5.2%. Besides, the “levels of synapsin expression” value in data set [4] is “significantly reduced the levels of synapsin expression”. The “effect on LTP” value in the data set with hippocampal slices is reported as “interferes with the maintenance of long-term potentiation”. Further, in the data set with hippocampal neurons (15 mM for 2 days), the “effect on neurite outgrowth” value is “strong effect on neurite outgrowth; also recorded: severely stunted neurites and failed to form synapses; also recorded: inhibits neuronal growth”. For the same compound, the “neurites with increasing concentration” value with hippocampal neurons (1, 5, 10, 15 or 30 mM for 2 days) is “gradual decrease in neurites”. Besides, the “cellular toxicity (trypan blue staining, adherence, morphology)” value in the data set with hippocampal neurons (concentrations up to 30 mM) is reported as “No cellular toxicity”. Moreover, in data set [5], the effect on memory result was “reversible amnesia”.

Source of the values: patent US7858578B2, “Methods of inducing neuronal growth by a Fucose-α(1-2) galactose (fuc-α(1-2) gal) moiety and a lectin” (California Institute of Technology, priority 2004, dated 2010).
